Laboratory results: PMC10119279 (Scientific Reports, 2023)
Read-outs that look alike come from different tables or passages of the source.

Legend:
CN1 enzyme = target: T1, CN1 enzyme (Homo sapiens, UniProt Q96KN2); assay: In vitro degradation of carnosine, anserine and balenine added to human heparin plasma; assay type: in vitro ADME; conditions: for Time after which undetectable in plasma: 20 µM added to heparin plasma; for Time after which undetectable in plasma / Half-life in plasma / half-life at 20 µM: 37 °C; for Half-life in plasma / half-life at 20 µM: 20 µM added to human heparin plasma, 6 subjects; for half-life at 20 µM: both sexes, human, heparin plasma, read-out: Half-life in plasma
T1 construct: Fasted venous heparin plasma was collected from 6 subjects (5 males and 1 female) with a wide range in CN1 enzyme activity; from tissue; host or cells: human venous heparin plasma from 6 volunteers
T1 sequence (Q96KN2 26-507): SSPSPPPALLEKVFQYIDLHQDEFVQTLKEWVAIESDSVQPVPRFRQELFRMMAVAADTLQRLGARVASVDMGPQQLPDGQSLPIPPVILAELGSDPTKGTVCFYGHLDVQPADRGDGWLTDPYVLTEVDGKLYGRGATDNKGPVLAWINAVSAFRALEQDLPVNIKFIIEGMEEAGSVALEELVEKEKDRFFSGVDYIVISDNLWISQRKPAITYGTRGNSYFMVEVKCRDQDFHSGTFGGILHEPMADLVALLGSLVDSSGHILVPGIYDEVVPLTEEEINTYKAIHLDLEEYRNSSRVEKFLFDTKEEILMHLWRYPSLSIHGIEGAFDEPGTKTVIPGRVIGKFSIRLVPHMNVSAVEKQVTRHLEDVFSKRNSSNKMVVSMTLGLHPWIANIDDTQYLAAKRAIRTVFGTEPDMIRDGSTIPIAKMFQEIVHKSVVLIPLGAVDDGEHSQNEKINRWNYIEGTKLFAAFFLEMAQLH
Procedure: Fasted venous heparin plasma was collected from 6 subjects (5 males and 1 female) with a wide range in CN1 enzyme activity (0.32–2.92 µmol/mL/h with a mean value of 1.62 µmol/mL/h). Subjects were asked to refrain from alcohol, meat and fish the day before the sampling. […] On different time points (Table 1), plasma was deproteinized with 1:11 sulfosalicylic acid (SSA, 35% solution) to inhibit further hydrolysis. Samples were centrifuged for 5 min at 16,000 g and supernatant was stored at − 20 °C until further UHPLC-MS/MS analysis.
Extraction of plasma and urine for UHPLC-MS/MS analysis went as follows: 150 µL of deproteinized plasma/urine (not deproteinized) was added to 215 µL of acetonitrile containing 1% formic acid, 10 µL of internal standard (IS) (carnosine-D4) and 25 µL ultrapure water or standard (calibration curve and quality control samples (QC)). Then samples were vortexed and centrifuged (15 min, 4 °C, 15,000 g). Supernatant was used for further analyses.
In the in vitro study, supernatant was diluted 40 times before injection. In the PK study, plasma samples from the 10 mg/kg condition and baseline urine samples were diluted 100 times. All other urine samples were diluted 1000 times. Dilutions were conducted with acetonitrile containing 1% formic acid.
Analyses were performed on a UHPLC-MS/MS platform consisting of an Acquity H-Class Quaternary Solvent Manager and Flow-Through-Needle Sample Manager with temperature controlled tray (8 °C) and column oven (60 °C). Chromatographic separation was achieved on an Acquity UPLC BEH amide column (2.1 mm × 100 mm, 1.7 µm) with an Acquity amide Vanguard pre-column. The system operated at a flow rate of 0.3 mL/min with solvent A (ultrapure water), solvent B (acetonitrile) and solvent C (200 mM ammonium formate with 0.04% ammonia) with the gradient shown in Table 2. The UPLC column effluent was interfaced to a Xevo TQ-XS® MS/MS system (plasma samples) and Xevo TQ-S® (urine samples), equipped with an electrospray ionization (ESI) probe operating in positive ion mode. Further MS settings included desolvation gas flow rate (15 L/h), desolvation temperature (600 °C), cone gas flow rate (800 L/h), source temperature (150 °C) and capillary voltage (0.75 kV). Transition details are depicted in Table 3. […] The detector operated in multiple reacting monitoring mode, scanning the two most intense transitions of the HCDs. Masslynx software 4.2 was used for instrument control and data extraction. Hardware and software were purchased from Waters (Milford, MA, USA).
CN1 activity was quantified by fluorometric determination of histidine following carnosine addition (based on Teufel et al., 2003). The reaction was initiated by adding carnosine to the serum (final concentration of 3.33 mM carnosine) and stopped after 10 min incubation at 37 °C by adding trichloroacetic acid (final concentration of 150 mM TCA). For controls, trichloroacetic acid was added before carnosine. After centrifugation (15 min, 16000 g), 10 µl supernatant was added to 190 µl of an OPA-NaOH mixture (4000 µl incomplete ophtaldehyde, with 0.2% 2-mercaptoethanol, and 15 ml of 4 M sodium hydroxide solution) and fluorescence was determined after 40 min (excitation: 360 nm and emission: 465 nm). All chemicals were purchased from Sigma-Aldrich (Milan, Italy).
HCD concentration in the in vitro experiment was calculated relative to the starting concentration. Elimination constant (ke) and elimination half-life were calculated based on a monophasic decay profile. Incremental area under the plasma concentration time curve (iAUC) was calculated using the trapezoidal method in the PK study. A normality check was performed using Shapiro-Wilk’s test. In case of normally distributed data, a mixed-effects model and Pearson correlation was used. Skewed data were analysed with Friedman tests and Spearman rank correlations. Values are presented as mean/median ± standard deviation/inter quartile range and 95% confidence intervals (95% CI). […]

[1] = test system: serum carnosinase (CN1) enzyme; conditions: cited from earlier work; for Substrate quality for the CN1 enzyme: ref 15-17
[2] = cited from earlier work
[3] = test system: human peptide transporter 2 (PEPT2); set-up: method as in PMID 20067523; conditions: ref 23; cited from earlier work

| SMILES | Time after which undetectable in plasma (CN1 enzyme) | Half-life in plasma (CN1 enzyme) | half-life at 20 µM (CN1 enzyme) | Elimination constant ke: factor difference between carnosine and anserine (CN1 enzyme; in vitro human heparin plasma, factor ×, not significant) | Substrate quality for the CN1 enzyme [1] | Hydrolysis rate as % of carnosine's ([1]; several in vitro experiments) | Cmax ([2]; 4 mg/kg oral, human) | Cmax ([2]; 10 mg/kg oral, human) | Plasma iAUC ([2]; 10 mg/kg oral, human) | Dose-dependent peak plasma concentrations after ingestion ([2]; human) | Average excreted percentage of the dose in urine (intact) ([2]; n = 7) | Affinity for PEPT2 [3] | Plasma concentration change after ingestion ([2]; 60 mg/kg bodyweight, only in people with low CN1 activity) | Plasma level after ingestion ([2]; highest dose of 20 mg/kg oral, human) | Resistance to CN1 ([1]; ref 29) |
| --- | --- | --- | --- | --- | --- | --- | --- | --- | --- | --- | --- | --- | --- | --- | --- |
| Cn1cncc1C[C@H](NC(=O)CCN)C(=O)O [anserine, β-alanyl-N(π)-methyl-L-histidine, reference compound] | 15 min | 2 min | 2.14 ± 0.58 min | 1.8 | intermediate | 30–50% | 540 nM | 1100 nM | 66.7 µM·min | 0.5 to 3.1 µM | 6.3% | high-affinity ligand |  |  |  |
| NCCC(=O)N[C@@H](Cc1cnc[nH]1)C(=O)O [carnosine, β-alanyl-L-histidine, reference compound] | 5 min | 1 min | 1.2 ± 0.36 min |  | good |  |  |  |  |  |  |  | small increase | barely measurable |  |
| NCCC(=O)NC(CO)Cc1cnc[nH]1 (stereo not shown) [carnosinol, reference compound] |  |  |  |  |  |  |  |  |  |  |  |  |  |  | resistant to CN1 |
